# Source: paper PMC6331910, “The Curcumin Analogue 1,5-Bis(2-hydroxyphenyl)-1,4-pentadiene-3-one Induces Apoptosis and Downregulates E6 and E7 Oncogene Expression in HPV16 and HPV18-Infected Cervical Cancer Cells” (Molecules, 2015)
# How the values were obtained:
# HPV16E6 = test: Quantitative real-time PCR of viral oncogene mRNA in CaSki cells; type: cell-based, HPV16; details: 24 h
# Method: RNA extraction was performed using the Qiagen RNeasy® Mini Kit (Qiagen, Valencia, CA, USA). According to the manufacturer’s instructions, treated HeLa and CaSki cells were lysed using Buffer RLT (supplemented with β-mercaptoethanol) and centrifuged for 3 min at maximum speed. 70% ethanol was added to the lysate and placed in an RNeasy Mini spin column and spun at ≥8000× g for 15 s. Flow-through was discarded and the pellet was subjected to a series of wash steps using buffers RW1 and RPE and subsequent RNA elution. On-column RNase-Free DNase (Qiagen) treatment was incorporated into the extraction protocol to eliminate […]. Concentration and purity of extracted RNA was measured spectrophotometrically using NanoDrop 1000 (Thermo Fisher Scientific, Wilmington, DE, USA). Two μg of total RNA per 20 μL reaction was used for complementary DNA (cDNA) synthesis using a High Capacity RNA-to-cDNA kit (Applied Biosystems, Life Technologies, Foster City, CA, USA). Appropriate volumes of RNA sample were added to 10 μL 2XRT Buffer and 1 μL 20X RT Enzyme Mix and the total volume was adjusted to 20 μL using nuclease-free water. Reverse transcription was performed on the samples using the following conditions; 37 °C for 60 min and 95 °C for 5 min. The sequences used to design the primers and TaqMan® probes were obtained from previous publications, synthesized by Applied Biosystems and optimized to amplify the HPV16 and HPV18 E6 and E7 regions (sequences listed in Table 2) using the StepOnePlus™ Real-Time PCR system (Applied Biosystems). The optimized concentrations of the primers and probes used were […] respectively. Human VIC®-MGB ACTB (β-actin) was used as an endogenous control for internal normalisation and relative gene expression quantification. Each reaction was run in duplicates and used to calculate relative gene expression using the 2^−∆∆CT method. Expression is reported as fold change in the level of mRNA of treated cells relative to untreated cells, normalised to β-actin expression.
# [1] = tested on: caspase-3 activity in HeLa cells; test: Caspase-3 colorimetric assay (relative caspase-3 activity); type: cell-based, human; details: all time points and doses (3, 6, 9 μM)
# Method: (§1) HeLa, 9 μM] at various time points. Each experiment included a set of untreated control cells (Media with DMSO alone). Caspase-3 activity was assessed using the Caspase-3 Colorimetric Assay Kit (Sigma Aldrich), following the manufacturer’s instructions. […] Following treatment, the cells were washed in PBS and suspended in a lysis buffer (50 mM HEPES pH 7.4, 5 mM CHAPS, 5 mM DTT) for 25 min at a concentration of 10^7 cells per 100 μL of buffer. Lysed cells were centrifuged at 16,000× g, 4 °C for 30 min. Lysate protein concentration was determined using the Cayman Chemical Protein Determination (Cayman Chemical Company, Ann Arbor, MI, USA) kit which is a colorimetric method for total protein quantification based on the Bradford method. In short, 100 μL of protein samples was diluted in 96-well plates and 100 μL of the assay reagent was added to the samples, incubated for 5 min and the absorbance measured at 595 nm. Protein concentrations were calculated from a regression line fit to a series of standard protein dilutions assays on the same plate as the unknown samples. […] The effect of Ac-DEVD-CHO, a caspase-3 inhibitor, on caspase-3 activity was studied simultaneously. As per the manufacturer’s instructions, 10 μL of the inhibitor Ac-DEVD-CHO (200 μM) was added to a well containing the assay buffer, followed immediately by the cell lysate and 10 μL of the substrate Ac-DEVD-pNA (2 mM). Caspase-3 activity was assessed by measuring the absorbance released by the pNA molecule at 405 nm using a Bio-Rad Benchmark Plus Microplate Spectrophotometer. Caspase-3 activity was expressed by measuring the ratio of the mean caspase-3 activity of treated cells relative to untreated cells.
# [2] = tested on: caspase-3 activity in CaSki cells; test: as above; type: cell-based, human
# Method: as §1
# CaSki = test: MTT anti-proliferative (time-dependent) assay, 24, 48 and 72 h; type: cell-based, human; details: for cell viability: 3.1–100 μM
# Method: HeLa, CaSki and MRC9 cells were plated in triplicate wells in 96-well flat-bottomed tissue culture plates (Nunc, Roskilde, Denmark) with 10^5 cells per mL in 100 μL culture media with working concentrations of diarylpentanoid treatment ranging from 1.6 to 100 μM. Control-treated wells contained cells incubated in media with equal volumes of DMSO (0.2%). Cells were treated for 72 h for dose-dependent cytotoxicity assays and at 24, 48 and 72 h for anti-proliferative (time-dependent) assays. In order to assess cell viability and anti-proliferative activity after diarylpentanoid treatment, the colorimetric 3-(4,5-dimethylthiazol-2-yl)-2,5-diphenyltetrazolium bromide (MTT) assay was performed as previously described with modifications. The media was aspirated and cells were incubated in 100 µL complete medium with 0.5 mg/mL MTT solution for 4 h in the dark to allow metabolism of MTT by cellular mitochondrial dehydrogenases. The excess MTT was aspirated and the formazan crystals formed were dissolved by the addition of 100 µL of DMSO. The absorbance of dark blue formazan was read at 570/650 nm wavelengths using a microplate reader (Bio-Rad Benchmark Plus Microplate Spectrophotometer, Hercules, CA, USA). Triplicate absorbance values were averaged and the effect of the compounds on growth inhibition was assessed as percentage cell viability as follows: (1) Percentage cell viability =Absorbance of Test − Absorbance of Blank (media only)/Absorbance of Control − Absorbance of Blank (media only) × 100 where, absorbance = optical density of sample, O.D.; control = untreated sample; test = treated sample.
# An independent set of vehicle-treated (DMSO only) controls were included in the anti-proliferative assays to assess the proliferation of untreated cancer cells over 24, 48 and 72 h. As such, the cell viability at 24 h was used as a baseline to measure proliferation rate at 48 and 72 h. (2) Percentage cell viability = […]/Absorbance of Control (24 h) × Absorbance of Blank (media only) × 100
# HeLa = test: DNA fragmentation, Cell Death Detection ELISA (cytoplasmic nucleosomal enrichment); type: cell-based, human
# Method: Each experiment included a set of untreated control cells (Media with DMSO alone). The enrichment of the cytoplasm of treated cells by mono- and oligonucleosomes are used to study whether enhanced DNA fragmentation is induced by diarylpentanoid treatment. This determination was made following the manufacturer’s instructions of the Cell Death Detection ELISA^PLUS kit (Roche Diagnostics, Mannheim, Germany). […] Following treatment, the cells were incubated in lysis buffer and centrifuged, after which the supernatant was transferred to streptavidin coated plates and shaken with the provided immunoreagent (mixture of anti-DNA-POD and anti-histone biotin) for 2 h. […] Enrichment factor, defined as the release of mono- and oligonucleosomes into the cytoplasm, was calculated using the formula below: (4) Enrichment factor =Absorbance of Test − Absorbance of Blank (substrate only)/Absorbance of Control − Absorbance of Blank (substrate only)
smiles,measurement,setting,value
"O=C(C=Cc1ccccc1O)C=Cc1ccccc1O [MS17, 1,5-bis(2-hydroxyphenyl)-1,4-pentadiene-3-one]",inhibition of E6 oncogene expression,HPV16E6; 2 μM and 4 μM,did not show significant inhibition
same,decrease in HPV16E6 expression,"HPV16E6; 6 μM, vs untreated",3 fold
same,relative caspase-3 activity,[1],no significant differences
same,relative caspase-3 activity,[2]; 2 μM,low caspase-3 activity
same,relative caspase-3 activity,"[2]; 4 μM, 48 h",increased activity
same,relative caspase-3 activity,"[2]; 6 μM, 24 h, treated over untreated",threefold increase
same,dosage from which reduction in cell viability was significantly higher at 48 and 72 h than at 24 h,CaSki,3.1 µM
same,cell growth,"CaSki; 12.5 μM onwards, 24 h",43%
same,cell viability,CaSki; 48 h,22%
same,cell viability,CaSki; 72 h,9%
same,increase in nucleosome enrichment,"HeLa; 6 μM, 24 h, vs untreated",2.2 fold
same,increase in enrichment factor,"HeLa; 6 μM, 48 h, vs untreated",approximately two-fold
same,enrichment factor,"HeLa; 6 and 9 μM, 72 h",significant reduction of enrichment factor
